Values quoted from earlier work as cited in patent US20120316143A1, “Ophthalmic composition” (priority 2009, published 2012).
Read-outs that look alike come from different tables or passages of the source.

Key:
patients = settings: applied topically as a 1% suspension
[1] = system: normal subjects; patients with ocular hypertension
[2] = system: rabbits made ocularly hypertensive with dexamethasone

C[C@]12CC[C@@H](O)C[C@H]1CC[C@@H]1[C@@H]2[C@@H](O)C[C@@]2(C)[C@H]1CC[C@]2(O)C(=O)CO [3-α-5-β-Tetrahydrocortisol]
effect on intraocular pressure (patients): lower intraocular pressure

CC1(C)[C@@H](OC(=O)CCC(=O)O)CC[C@]2(C)[C@H]3C(=O)C=C4[C@@H]5C[C@@](C)(C(=O)O)CC[C@]5(C)CC[C@@]4(C)[C@]3(C)CC[C@@H]12 [Carbenoxolone]
decrease in intraocular pressure ([1]; normal subjects): 20%
decrease in intraocular pressure ([1]; patients with ocular hypertension): 20%

C[C@]12CC[C@@H](O)C[C@H]1CC[C@@H]1[C@@H]2[C@@H](O)C[C@@]2(C)[C@H]1CC[C@]2(O)C(=O)CO [Tetrahydrocortisol, tetrahydrocortisol]
effect on intraocular pressure (IOP) [2]: lower intraocular pressure
